Data published in publication PMC7932537, “Quantitative profiling of protease specificity” (PLoS Computational Biology, 2021).

What was measured:
[1] = biological target: MMP-9 (Homo sapiens, UniProt P14780); assay: K(obs) of individual phage substrates (set of 1369); assay type: biochemical; conditions: MMP9, individual phage substrates, set of 1369 peptides
[2] = biological target: T1, MMP-2 (Homo sapiens, UniProt P08253); assay: as above; assay type: biochemical; conditions: MMP2
T1 sequence (P08253 110-660): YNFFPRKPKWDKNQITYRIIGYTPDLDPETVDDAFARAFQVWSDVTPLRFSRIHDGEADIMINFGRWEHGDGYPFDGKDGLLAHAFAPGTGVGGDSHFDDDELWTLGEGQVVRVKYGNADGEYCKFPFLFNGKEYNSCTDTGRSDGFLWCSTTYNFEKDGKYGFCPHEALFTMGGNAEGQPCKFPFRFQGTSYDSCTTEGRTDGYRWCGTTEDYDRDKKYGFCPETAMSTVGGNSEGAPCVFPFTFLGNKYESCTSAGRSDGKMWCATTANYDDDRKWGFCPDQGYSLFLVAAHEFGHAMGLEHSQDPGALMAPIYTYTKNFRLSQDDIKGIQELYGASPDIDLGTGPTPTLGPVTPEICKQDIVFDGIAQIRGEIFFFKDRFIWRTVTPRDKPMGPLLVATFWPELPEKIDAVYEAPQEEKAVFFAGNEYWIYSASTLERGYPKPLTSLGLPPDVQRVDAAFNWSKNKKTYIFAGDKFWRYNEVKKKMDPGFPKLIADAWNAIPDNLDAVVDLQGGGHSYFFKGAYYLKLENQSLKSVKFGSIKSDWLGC

[3] = '-' marks the cleavage position (P1-P1')
[4] = individual phage substrates, set of 1369 peptides, cleavage position marked by '-' in the sequence
[5] = dash in sequence marks cleavage position
[6] = individual phage substrate from the set of 1369 peptides, cleavage position marked by the dash in the sequence

Sequence of MMP-9 (P14780 94-707): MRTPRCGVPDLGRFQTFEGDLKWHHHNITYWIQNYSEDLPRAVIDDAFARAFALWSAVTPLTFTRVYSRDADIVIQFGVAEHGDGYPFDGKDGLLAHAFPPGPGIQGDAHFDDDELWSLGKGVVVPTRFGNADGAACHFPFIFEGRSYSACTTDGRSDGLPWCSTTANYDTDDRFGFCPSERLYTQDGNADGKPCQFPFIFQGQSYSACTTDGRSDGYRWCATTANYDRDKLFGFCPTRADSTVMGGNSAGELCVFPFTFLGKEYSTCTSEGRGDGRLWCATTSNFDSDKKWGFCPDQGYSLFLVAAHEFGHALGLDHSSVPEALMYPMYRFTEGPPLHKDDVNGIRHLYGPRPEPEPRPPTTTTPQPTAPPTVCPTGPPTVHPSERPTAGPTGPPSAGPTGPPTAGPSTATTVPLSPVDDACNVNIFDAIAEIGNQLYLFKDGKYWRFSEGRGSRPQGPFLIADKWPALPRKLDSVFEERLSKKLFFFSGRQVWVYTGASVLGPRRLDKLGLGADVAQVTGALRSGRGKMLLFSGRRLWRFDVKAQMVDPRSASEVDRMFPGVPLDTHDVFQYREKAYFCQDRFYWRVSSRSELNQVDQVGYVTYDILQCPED

| Substance | Kobs [1, 3] [M⁻¹ s⁻¹] | Kobs [2, 4] [M⁻¹ s⁻¹] | Kobs [1, 5] [M⁻¹ s⁻¹] | Kobs [2, 6] [M⁻¹ s⁻¹] |
| --- | --- | --- | --- | --- |
| GRHQS-LRTAS | 0 | 836.403 |  |  |
| QKYSN-LTASG | 0 | 5889.62 |  |  |
| IVNAR-LTASG | 56.119 | 2038.8 |  |  |
| FHIAH-LTASG | 3850.82 | 12792.1 |  |  |
| SGHMH-MRSTA |  |  | 0 | 0 |
| SGVWP-LVKTA |  |  | 0 | 0 |
| SGVAP-LILTA | 142.481 | 0 |  |  |
| SGANY-IRATA |  |  | 418.952 | 1465.65 |
| GSGQG-LRMGT |  |  | 0 | 0 |
| GSGNF-LRKMT | 484.315 | 1196.62 |  |  |
| LPTRW-LTASG | 4082.43 | 7815.03 |  |  |
| SGAFH-ILGTA | 5667.28 | 1030.73 |  |  |
| GGSGA-LHRPG |  |  | 0 | 1071.29 |
| SGARG-IKLTA |  |  | 0 | 0 |
| PDVFA-LTASG | 6688.74 | 3637.04 |  |  |
| SRPLN-LTASG |  |  | 7386.83 | 6688.74 |
| GGSGS-LRLFE | 0 | 0 |  |  |
| YNVNY-LTASG |  |  | 201.585 | 3964.21 |
| GVMMQ-LVTAS | 0 | 0 |  |  |
| GTPLG-QITAS | 5461.43 | 12792.1 |  |  |
| ESPSF-LTASG |  |  | 3741.87 | 12792.1 |

| Substance | Kobs [1, 3] [M⁻¹ s⁻¹] | Kobs [2, 4] [M⁻¹ s⁻¹] | Kobs [1, 5] [M⁻¹ s⁻¹] | Kobs [2, 6] [M⁻¹ s⁻¹] |
| --- | --- | --- | --- | --- |
| SGVFN-LAFTA | 201.585 | 912.511 |  |  |
| SGGRN-LTATA |  |  | 7815.03 | 12792.1 |
| QSPVQ-LTASG | 4205.91 | 12792.1 |  |  |
| RYPWA-LTASG | 12792.1 | 8941.32 |  |  |
| SGWAS-MRLTA | 142.481 | 0 |  |  |
| SGLAS-LRLTA | 0 | 874.197 |  |  |
| GGSGF-LVRSL | 10866.7 | 9740.44 |  |  |
| SGPKQ-LTRTA | 1465.65 | 0 |  |  |
| TLTHH-LTASG | 0 | 0 |  |  |
| GGSGR-LTLKW |  |  | 0 | 0 |
| SRVRN-LTASG | 4470.66 | 8321.48 |  |  |
| SGYAG-LRQTA | 0 | 231.616 |  |  |
| SGVNR-ISLTA |  |  | 0 | 113.394 |
| LGWSS-LTASG |  |  | 0 | 3344.37 |
| SGPSD-LHATA | 12792.1 | 12792.1 |  |  |
| GVLMR-LNTAS | 0 | 0 |  |  |
| KMPRW-ITASG |  |  | 9740.44 | 6131.32 |
| SGPLS-ILNTA | 12792.1 | 8941.32 |  |  |
| SVARN-LTASG | 4205.91 | 10866.7 |  |  |
| SGTWR-LMLTA |  |  | 27.918 | 0 |
| SSPLY-LTASG | 12792.1 | 12792.1 |  |  |

| Substance | Kobs [1, 3] [M⁻¹ s⁻¹] | Kobs [2, 4] [M⁻¹ s⁻¹] | Kobs [1, 5] [M⁻¹ s⁻¹] | Kobs [2, 6] [M⁻¹ s⁻¹] |
| --- | --- | --- | --- | --- |
| GRALA-MQTAS | 2218.08 | 3637.04 |  |  |
| TLPHS-LTASG |  |  | 9740.44 | 12792.1 |
| SGPHW-LNATA | 10866.7 | 3741.87 |  |  |
| SGVMK-LQKTA |  |  | 0 | 0 |
| NSPQL-LTASG |  |  | 2097.28 | 6396.07 |
| ERLLH-LTASG |  |  | 231.616 | 2837.92 |
| SGYAH-MRVTA | 0 | 0 |  |  |
| SGVMY-LQVTA |  |  | 654.784 | 0 |
| VKVWG-LTASG |  |  | 8321.48 | 5461.43 |
| PGVRF-LTASG | 7815.03 | 8941.32 |  |  |
| RKALN-LTASG | 5667.28 | 4613.14 |  |  |
| GQPNF-LTASG |  |  | 1283.43 | 2157.02 |
| GWVGH-LSTAS |  |  | 386.839 | 10866.7 |
| YSPSL-ITASG |  |  | 2476.66 | 4470.66 |
| IFINF-LTASG | 323.705 | 10866.7 |  |  |
| TVSLP-LTASG |  |  | 355.093 | 2097.28 |
| GGSGR-LRLAI |  |  | 0 | 0 |
| GVAGA-LYTAS | 0 | 2097.28 |  |  |
| YFPLD-MTASG |  |  | 7815.03 | 3637.04 |
| GGSGP-LRARL |  |  | 0 | 1816.46 |
| RWPAW-LTASG |  |  | 8941.32 | 9740.44 |

| Substance | Kobs [1, 3] [M⁻¹ s⁻¹] | Kobs [2, 4] [M⁻¹ s⁻¹] | Kobs [1, 5] [M⁻¹ s⁻¹] | Kobs [2, 6] [M⁻¹ s⁻¹] |
| --- | --- | --- | --- | --- |
| GGSGS-LTFNT |  |  | 0 | 0 |
| GPAGH-LSTAS |  |  | 951.362 | 5889.62 |
| GVLGH-LSTAS | 0 | 3438.54 |  |  |
| SGPQA-VVKTA |  |  | 517.582 | 1071.29 |
| GRVAH-LRTAS | 1112.44 | 12792.1 |  |  |
| SGLWT-LMATA | 0 | 0 |  |  |
| IMMAY-LTASG | 113.394 | 12792.1 |  |  |
| WNSLN-LTASG |  |  | 451.441 | 484.315 |
| GGSGA-LRVQL | 0 | 231.616 |  |  |
| FTPLN-MTASG | 10866.7 | 12792.1 |  |  |
| GGSGN-LTFLA |  |  | 0 | 451.441 |
| WSVQL-LTASG | 355.093 | 551.253 |  |  |
| ANAMN-LTASG | 2761.81 | 1513.13 |  |  |
| GQVRA-LRTAS | 12792.1 | 12792.1 |  |  |
| GGSGA-LQRLP | 0 | 113.394 |  |  |
| GSGFQ-LRVFT | 84.609 | 0 |  |  |
| GGSGR-LKWNL |  |  | 690.17 | 551.253 |
| GRIAL-LTTAS | 0 | 7815.03 |  |  |
| YLPRA-ITASG | 12792.1 | 12792.1 |  |  |
| KSPAY-LTASG |  |  | 10866.7 | 10866.7 |
| GYGLH-LRTAS | 261.974 | 201.585 |  |  |
